Source: ChEMBL document CHEMBL1201862, “PubChem BioAssay data set” (2004)
The source made the active and inactive calls.

What was measured:
[1] = biological target: T1, Apoptotic protease-activating factor 1 (Homo sapiens, UniProt O14727); experiment: SAR analysis of small molecule Activators of Apaf-1 in a Fluorescent assay - set 2.; assay type: functional; conditions: read-out: EC50_Mean
T1 sequence (O14727 whole entry): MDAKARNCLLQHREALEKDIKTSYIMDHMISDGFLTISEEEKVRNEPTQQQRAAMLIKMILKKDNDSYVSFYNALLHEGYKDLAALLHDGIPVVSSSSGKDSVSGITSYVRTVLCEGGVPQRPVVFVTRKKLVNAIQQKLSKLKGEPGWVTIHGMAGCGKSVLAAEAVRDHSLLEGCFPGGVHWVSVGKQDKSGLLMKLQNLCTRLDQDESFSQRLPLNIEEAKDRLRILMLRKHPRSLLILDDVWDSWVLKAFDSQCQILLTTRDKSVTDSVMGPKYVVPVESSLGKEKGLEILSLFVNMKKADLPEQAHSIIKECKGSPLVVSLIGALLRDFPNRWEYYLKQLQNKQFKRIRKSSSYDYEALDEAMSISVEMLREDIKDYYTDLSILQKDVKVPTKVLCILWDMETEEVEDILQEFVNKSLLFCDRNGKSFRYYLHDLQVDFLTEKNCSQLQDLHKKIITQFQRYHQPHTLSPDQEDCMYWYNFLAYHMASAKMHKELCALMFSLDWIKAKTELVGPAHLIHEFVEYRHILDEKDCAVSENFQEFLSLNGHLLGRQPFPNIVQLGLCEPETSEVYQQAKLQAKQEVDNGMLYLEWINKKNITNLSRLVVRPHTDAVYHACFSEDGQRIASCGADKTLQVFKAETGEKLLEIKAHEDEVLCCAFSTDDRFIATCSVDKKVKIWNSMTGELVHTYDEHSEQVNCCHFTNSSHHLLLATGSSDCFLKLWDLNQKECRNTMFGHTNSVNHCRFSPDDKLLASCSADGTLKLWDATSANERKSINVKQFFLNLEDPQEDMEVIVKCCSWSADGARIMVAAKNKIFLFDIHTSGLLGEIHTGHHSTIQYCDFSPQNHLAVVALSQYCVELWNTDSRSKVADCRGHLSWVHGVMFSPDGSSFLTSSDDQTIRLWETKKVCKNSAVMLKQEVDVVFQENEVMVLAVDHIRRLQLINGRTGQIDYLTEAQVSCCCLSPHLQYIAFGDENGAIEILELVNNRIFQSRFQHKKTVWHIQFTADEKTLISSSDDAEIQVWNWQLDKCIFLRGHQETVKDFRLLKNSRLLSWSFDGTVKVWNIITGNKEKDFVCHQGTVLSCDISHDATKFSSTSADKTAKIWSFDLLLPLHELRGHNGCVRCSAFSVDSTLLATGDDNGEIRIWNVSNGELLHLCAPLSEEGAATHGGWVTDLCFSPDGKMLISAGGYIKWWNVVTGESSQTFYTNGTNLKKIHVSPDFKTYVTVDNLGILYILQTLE

[2] = SAR analysis of small molecule activators of Apaf-1 using a LZ-Caspase-9/Caspase-3 Fluorescent Selectivity assay - Set 2.; assay type: functional; conditions: read-out: EC50_Mean
[3] = biological target: T1, Apoptotic protease-activating factor 1; experiment: SAR analysis of small molecule Activators of Apaf-1 in a Fluorescent assay.; assay type: functional; conditions: read-out: EC50_Mean
[4] = biological target: Rho-associated protein kinase 1 (Homo sapiens, UniProt Q13464); assay type: functional;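 also: measured within a broad kinome-wide panel profiling many kinases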
[5] = biological target: cAMP-dependent protein kinase catalytic subunit alpha (Homo sapiens, UniProt P17612); assay type: functional
[6] = biological target: Cyclin-dependent kinase 9 (Homo sapiens, UniProt P50750); assay type: functional;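 also: value from the CDK9 entry of a kinome-spanning kinase panel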
Sequence of Cyclin-dependent kinase 9 (P50750 whole entry): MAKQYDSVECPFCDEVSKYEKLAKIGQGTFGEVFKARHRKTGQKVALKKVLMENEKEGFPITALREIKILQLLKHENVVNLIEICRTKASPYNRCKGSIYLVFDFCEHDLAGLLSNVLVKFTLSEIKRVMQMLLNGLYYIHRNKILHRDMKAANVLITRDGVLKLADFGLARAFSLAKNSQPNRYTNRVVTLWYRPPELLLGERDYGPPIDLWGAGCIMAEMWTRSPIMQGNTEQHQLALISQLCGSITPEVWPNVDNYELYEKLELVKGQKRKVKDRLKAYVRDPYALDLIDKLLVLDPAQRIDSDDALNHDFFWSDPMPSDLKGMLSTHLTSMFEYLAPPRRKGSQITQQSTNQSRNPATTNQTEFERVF

[7] = biological target: Protein kinase C theta type (Homo sapiens, UniProt Q04759); experiment: Navigating the Kinome. Panel member name: PRKCQ; assay type: functional
[8] = biological target: ALK tyrosine kinase receptor (Homo sapiens, UniProt Q9UM73); assay type: functional;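 also: ALK tested as one member of a kinase panel screen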
Sequence of ALK tyrosine kinase receptor (Q9UM73 whole entry): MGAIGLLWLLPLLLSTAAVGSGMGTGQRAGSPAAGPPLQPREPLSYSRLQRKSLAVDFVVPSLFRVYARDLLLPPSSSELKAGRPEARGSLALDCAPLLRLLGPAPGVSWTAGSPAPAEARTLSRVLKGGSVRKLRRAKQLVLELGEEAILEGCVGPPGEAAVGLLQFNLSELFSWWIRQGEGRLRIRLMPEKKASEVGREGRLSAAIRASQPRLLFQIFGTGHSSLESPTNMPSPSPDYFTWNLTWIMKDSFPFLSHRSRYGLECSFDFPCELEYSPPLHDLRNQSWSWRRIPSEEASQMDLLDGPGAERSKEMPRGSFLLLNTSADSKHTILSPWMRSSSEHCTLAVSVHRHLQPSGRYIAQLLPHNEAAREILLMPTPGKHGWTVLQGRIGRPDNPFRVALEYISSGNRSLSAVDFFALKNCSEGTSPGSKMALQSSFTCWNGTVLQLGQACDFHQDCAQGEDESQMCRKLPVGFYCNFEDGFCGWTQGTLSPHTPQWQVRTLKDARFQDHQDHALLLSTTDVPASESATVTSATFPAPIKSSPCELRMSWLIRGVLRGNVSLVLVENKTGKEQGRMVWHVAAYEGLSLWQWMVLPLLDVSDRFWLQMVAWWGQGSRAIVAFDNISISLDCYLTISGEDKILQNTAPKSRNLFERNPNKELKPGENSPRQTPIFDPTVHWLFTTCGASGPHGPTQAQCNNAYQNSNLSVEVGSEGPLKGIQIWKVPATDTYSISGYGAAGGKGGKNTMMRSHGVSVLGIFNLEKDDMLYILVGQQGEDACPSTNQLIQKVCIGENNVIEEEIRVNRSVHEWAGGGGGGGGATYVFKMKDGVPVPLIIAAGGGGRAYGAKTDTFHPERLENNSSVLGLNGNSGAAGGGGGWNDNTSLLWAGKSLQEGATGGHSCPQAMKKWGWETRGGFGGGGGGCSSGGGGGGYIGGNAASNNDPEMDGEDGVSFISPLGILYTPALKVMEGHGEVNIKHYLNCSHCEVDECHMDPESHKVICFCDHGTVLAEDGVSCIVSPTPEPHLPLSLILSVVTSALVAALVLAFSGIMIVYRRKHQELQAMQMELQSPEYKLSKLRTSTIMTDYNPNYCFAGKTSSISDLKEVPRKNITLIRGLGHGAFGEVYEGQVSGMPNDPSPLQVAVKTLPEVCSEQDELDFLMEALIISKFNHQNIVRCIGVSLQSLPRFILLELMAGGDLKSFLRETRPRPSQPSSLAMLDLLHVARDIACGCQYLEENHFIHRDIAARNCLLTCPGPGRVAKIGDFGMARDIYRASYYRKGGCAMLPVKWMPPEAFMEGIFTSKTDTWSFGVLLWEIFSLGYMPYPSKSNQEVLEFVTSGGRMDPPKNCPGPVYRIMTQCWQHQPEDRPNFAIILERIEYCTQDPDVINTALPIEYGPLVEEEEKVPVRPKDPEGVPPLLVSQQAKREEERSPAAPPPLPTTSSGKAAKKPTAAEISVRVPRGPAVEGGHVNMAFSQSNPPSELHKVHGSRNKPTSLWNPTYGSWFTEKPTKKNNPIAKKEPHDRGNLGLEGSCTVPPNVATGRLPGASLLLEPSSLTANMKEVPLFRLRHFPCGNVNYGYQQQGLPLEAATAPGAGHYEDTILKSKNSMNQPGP

[9] = biological target: Dual specificity tyrosine-phosphorylation-regulated kinase 1B (Homo sapiens, UniProt Q9Y463); experiment: Navigating the Kinome. Panel member name: DYRK1B; assay type: functional
[10] = biological target: Platelet-derived growth factor receptor beta (Homo sapiens, UniProt P09619); assay type: functional;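 also: value comes from a kinome panel, with PDGFRB tested as one panel member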
Sequence of Platelet-derived growth factor receptor beta (P09619 whole entry): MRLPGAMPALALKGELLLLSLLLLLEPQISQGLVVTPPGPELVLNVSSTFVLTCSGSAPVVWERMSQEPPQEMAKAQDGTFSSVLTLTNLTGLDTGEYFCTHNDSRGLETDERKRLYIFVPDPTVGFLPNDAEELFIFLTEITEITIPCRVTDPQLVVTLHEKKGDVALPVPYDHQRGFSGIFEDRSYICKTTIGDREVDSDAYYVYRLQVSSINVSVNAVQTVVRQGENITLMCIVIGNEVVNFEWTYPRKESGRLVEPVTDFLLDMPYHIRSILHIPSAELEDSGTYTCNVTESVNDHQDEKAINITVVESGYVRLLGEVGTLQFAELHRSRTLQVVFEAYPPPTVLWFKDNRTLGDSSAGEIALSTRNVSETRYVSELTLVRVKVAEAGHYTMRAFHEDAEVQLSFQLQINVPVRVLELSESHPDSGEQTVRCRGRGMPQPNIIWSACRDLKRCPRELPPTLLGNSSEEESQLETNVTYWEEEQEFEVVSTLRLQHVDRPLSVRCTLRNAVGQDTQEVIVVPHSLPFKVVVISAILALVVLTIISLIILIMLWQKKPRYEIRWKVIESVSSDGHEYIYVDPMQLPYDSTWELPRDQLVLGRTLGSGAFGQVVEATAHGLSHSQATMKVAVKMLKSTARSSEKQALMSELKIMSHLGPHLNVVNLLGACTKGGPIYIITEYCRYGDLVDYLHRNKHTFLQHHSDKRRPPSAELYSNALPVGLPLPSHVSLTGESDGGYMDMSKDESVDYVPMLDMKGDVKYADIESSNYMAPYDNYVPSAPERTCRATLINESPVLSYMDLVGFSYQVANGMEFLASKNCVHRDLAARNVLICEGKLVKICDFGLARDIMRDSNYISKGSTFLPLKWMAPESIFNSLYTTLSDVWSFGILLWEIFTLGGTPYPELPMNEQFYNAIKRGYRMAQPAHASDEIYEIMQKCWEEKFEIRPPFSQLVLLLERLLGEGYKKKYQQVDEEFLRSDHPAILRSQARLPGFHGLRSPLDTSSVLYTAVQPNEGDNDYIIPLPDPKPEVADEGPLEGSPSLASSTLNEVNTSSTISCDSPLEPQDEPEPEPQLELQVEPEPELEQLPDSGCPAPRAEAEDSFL

[11] = biological target: Dual specificity tyrosine-phosphorylation-regulated kinase 1A (Homo sapiens, UniProt Q13627); assay type: functional;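 also: measured against DYRK1A as one member of a broad kinome profiling panel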
[12] = biological target: Macrophage colony-stimulating factor 1 receptor (Homo sapiens, UniProt P07333); assay type: functional;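 also: value comes from the Navigating the Kinome screening panel, CSF1R member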
[13] = biological target: T2, Aurora kinase A (Homo sapiens, UniProt O14965); assay type: functional;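 also: value from the Navigating the Kinome kinase panel profiling, panel entry STK6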
T2 sequence (O14965 whole entry): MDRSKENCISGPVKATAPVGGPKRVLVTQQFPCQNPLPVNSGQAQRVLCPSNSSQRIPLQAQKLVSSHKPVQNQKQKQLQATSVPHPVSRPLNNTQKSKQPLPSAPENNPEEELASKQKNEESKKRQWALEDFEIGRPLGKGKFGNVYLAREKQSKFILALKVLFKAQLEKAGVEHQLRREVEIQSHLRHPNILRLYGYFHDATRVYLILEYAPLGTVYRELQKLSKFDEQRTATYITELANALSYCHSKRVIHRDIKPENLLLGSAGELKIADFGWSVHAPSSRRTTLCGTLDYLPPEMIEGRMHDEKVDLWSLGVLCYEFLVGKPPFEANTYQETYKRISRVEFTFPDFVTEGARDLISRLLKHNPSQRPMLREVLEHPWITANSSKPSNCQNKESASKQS

[14] = biological target: Vascular endothelial growth factor receptor 2 (Homo sapiens, UniProt P35968); assay type: functional
[15] = biological target: T3, Serine/threonine-protein kinase Chk1 (Homo sapiens, UniProt O14757); assay type: functional;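 also: measured as one member of a kinome-wide kinase profiling panel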
T3 sequence (O14757 whole entry): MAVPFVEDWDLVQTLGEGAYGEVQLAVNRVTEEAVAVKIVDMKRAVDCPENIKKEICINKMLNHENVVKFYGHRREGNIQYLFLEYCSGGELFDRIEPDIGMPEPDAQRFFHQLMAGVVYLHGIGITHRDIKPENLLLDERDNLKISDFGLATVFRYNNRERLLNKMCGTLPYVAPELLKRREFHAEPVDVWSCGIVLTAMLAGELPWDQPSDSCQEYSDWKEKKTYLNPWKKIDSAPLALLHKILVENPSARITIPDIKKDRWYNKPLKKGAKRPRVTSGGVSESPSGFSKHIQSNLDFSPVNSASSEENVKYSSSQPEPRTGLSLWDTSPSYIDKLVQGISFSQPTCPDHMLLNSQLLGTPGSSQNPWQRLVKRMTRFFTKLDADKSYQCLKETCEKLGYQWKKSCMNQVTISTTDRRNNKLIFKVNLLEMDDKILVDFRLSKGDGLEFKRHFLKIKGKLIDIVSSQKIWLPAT

[16] = biological target: Leukocyte tyrosine kinase receptor (Homo sapiens, UniProt P29376); experiment: Navigating the Kinome. Panel member name: LTK; assay type: functional
[17] = biological target: Cyclin-dependent kinase 19 (Homo sapiens, UniProt Q9BWU1); experiment: Navigating the Kinome. Panel member name: CDC2L6; assay type: functional
Sequence of Cyclin-dependent kinase 19 (Q9BWU1 whole entry): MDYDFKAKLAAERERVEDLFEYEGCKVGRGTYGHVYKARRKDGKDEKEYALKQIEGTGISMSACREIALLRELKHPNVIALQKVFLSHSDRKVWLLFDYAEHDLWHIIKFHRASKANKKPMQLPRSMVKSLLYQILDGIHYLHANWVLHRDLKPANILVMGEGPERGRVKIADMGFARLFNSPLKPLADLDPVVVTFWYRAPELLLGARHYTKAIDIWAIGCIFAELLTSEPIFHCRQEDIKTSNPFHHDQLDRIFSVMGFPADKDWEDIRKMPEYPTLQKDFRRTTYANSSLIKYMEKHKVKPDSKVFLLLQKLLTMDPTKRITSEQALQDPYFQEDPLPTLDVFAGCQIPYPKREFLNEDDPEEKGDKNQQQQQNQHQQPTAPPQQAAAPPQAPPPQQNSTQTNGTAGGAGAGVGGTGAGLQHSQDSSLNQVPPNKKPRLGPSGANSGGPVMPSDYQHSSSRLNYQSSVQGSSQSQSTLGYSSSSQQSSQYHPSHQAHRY

[18] = biological target: Tyrosine-protein kinase ABL1 (Homo sapiens, UniProt P00519); assay type: functional
[19] = biological target: Death-associated protein kinase 3 (Homo sapiens, UniProt O43293); assay type: functional;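 also: measured as one member of a kinome-wide profiling panel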
Sequence of Death-associated protein kinase 3 (O43293 whole entry, the tested form may be a part): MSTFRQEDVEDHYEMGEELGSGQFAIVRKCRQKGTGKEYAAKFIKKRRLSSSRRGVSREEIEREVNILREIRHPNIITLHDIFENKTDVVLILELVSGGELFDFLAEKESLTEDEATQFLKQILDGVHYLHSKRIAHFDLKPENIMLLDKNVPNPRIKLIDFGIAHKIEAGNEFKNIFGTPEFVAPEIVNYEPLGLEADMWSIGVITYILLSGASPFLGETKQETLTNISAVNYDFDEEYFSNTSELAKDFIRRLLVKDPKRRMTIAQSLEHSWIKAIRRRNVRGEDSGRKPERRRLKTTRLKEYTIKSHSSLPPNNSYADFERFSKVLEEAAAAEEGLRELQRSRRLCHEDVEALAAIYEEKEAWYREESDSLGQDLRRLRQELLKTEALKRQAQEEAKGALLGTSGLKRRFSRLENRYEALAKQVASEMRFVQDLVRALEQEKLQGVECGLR

[20] = biological target: LIM domain kinase 1 (Homo sapiens, UniProt P53667); experiment: Navigating the Kinome. Panel member name: LIMK1; assay type: functional
[21] = biological target: T4, Melanin-concentrating hormone receptor 1 (Homo sapiens, UniProt Q99705); experiment: Late-stage fluorescence-based counterscreen for antagonists of the G-protein coupled receptor 7 (GPR7): cell-based dose response assay to identify antagonists of the melanin-concentrating hormone receptor 1 (MCHR1) Set 5.; assay type: functional
T4 sequence (Q99705 whole entry): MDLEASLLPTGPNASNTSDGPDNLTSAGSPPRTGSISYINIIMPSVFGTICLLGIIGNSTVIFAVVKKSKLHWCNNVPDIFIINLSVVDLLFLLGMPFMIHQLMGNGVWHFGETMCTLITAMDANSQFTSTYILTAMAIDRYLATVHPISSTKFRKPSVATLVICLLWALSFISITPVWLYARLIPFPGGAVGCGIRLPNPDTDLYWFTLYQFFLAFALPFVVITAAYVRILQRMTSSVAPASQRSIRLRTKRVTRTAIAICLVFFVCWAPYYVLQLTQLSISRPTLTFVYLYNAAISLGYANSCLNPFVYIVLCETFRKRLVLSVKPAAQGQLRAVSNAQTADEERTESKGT

[22] = biological target: T5, Neuropeptides B/W receptor type 1 (Homo sapiens, UniProt P48145); experiment: human NPBW1 receptor blockade, IC50 – cell-based, fluorescence, dose response, set 5, late-stage follow-up (AID 588566); assay type: functional
T5 sequence (P48145 whole entry): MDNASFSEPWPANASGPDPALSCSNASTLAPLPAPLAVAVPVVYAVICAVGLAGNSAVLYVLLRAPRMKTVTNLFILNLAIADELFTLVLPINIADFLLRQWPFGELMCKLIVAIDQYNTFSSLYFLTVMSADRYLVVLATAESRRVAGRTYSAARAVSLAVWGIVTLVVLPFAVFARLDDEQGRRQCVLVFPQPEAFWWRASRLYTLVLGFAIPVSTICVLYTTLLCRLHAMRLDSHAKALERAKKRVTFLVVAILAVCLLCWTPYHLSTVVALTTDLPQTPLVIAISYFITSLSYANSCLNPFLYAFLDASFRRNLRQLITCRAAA

[23] = biological target: T4, Melanin-concentrating hormone receptor 1; experiment: Late-stage fluorescence-based counterscreen for antagonists of the G-protein coupled receptor 7 (GPR7): cell-based dose response assay to identify antagonists of the melanin-concentrating hormone receptor 1 (MCHR1) Set 6.; assay type: functional
[24] = biological target: T5, Neuropeptides B/W receptor type 1; experiment: human NPBW1 receptor blockade, IC50 – cell-based, fluorescence, dose response, set 6, late-stage follow-up (AID 588583); assay type: functional
[25] = biological target: T6, DNA dC->dU-editing enzyme APOBEC-3G (Homo sapiens, UniProt Q9HC16); experiment: SAR analysis of small molecule inhibitors of APOBEC3G DNA Deaminase via a fluorescence-based single-stranded DNA deaminase assay - Set 2.; assay type: functional; conditions: read-out: IC50_Mean
T6 sequence (Q9HC16 whole entry): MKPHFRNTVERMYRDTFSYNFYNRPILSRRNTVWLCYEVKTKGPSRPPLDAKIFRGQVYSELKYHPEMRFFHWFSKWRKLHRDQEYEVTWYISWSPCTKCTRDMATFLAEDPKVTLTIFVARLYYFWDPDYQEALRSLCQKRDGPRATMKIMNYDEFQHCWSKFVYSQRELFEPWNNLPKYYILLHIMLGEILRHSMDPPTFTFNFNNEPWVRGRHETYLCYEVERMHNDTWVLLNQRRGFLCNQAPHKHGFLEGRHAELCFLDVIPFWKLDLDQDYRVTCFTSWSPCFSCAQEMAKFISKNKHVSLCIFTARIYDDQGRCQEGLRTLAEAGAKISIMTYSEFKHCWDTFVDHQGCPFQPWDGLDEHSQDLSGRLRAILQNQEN

[26] = biological target: T7, Protein Tat (Human immunodeficiency virus type 1 group M subtype B (isolate HXB2)(HIV-1), UniProt P04608); assay type: functional;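 also: tat binding to TAR RNA read out by fluorescence polarization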
T7 sequence (P04608 whole entry): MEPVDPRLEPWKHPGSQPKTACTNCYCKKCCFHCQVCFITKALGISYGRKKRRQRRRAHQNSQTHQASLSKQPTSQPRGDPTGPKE

[27] = biological target: T8, DNA dC->dU-editing enzyme APOBEC-3A (Homo sapiens, UniProt P31941); experiment: SAR analysis of small molecule inhibitors of APOBEC3A DNA Deaminase via a fluorescence-based single-stranded DNA deaminase assay.; assay type: functional; conditions: read-out: IC50_Mean
T8 sequence (P31941 whole entry): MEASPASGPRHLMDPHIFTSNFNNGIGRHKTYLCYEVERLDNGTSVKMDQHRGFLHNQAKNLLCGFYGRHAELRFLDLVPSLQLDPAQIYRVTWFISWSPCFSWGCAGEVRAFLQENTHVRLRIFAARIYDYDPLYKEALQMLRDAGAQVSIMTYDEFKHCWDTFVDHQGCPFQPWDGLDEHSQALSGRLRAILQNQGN

[28] = biological target: T8, DNA dC->dU-editing enzyme APOBEC-3A; experiment: SAR analysis of small molecule inhibitors of APOBEC3A DNA Deaminase via a fluorescence-based single-stranded DNA deaminase assay - Set 2.; assay type: functional; conditions: read-out: IC50_Mean
[29] = biological target: T9, Bcl-2-like protein 10 (Homo sapiens, UniProt Q9HD36); experiment: Bcl-B/TR3 peptide binding disruption – biochemical, fluorescence polarization, FITC-TR3 peptide, selectivity assay for Bfl-1 inhibitor project, primary screen (AID 748);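 also: fluorescence polarization from a fluorescein-labelled TR3 peptide binding purified Bcl-B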
T9 sequence (Q9HD36 whole entry): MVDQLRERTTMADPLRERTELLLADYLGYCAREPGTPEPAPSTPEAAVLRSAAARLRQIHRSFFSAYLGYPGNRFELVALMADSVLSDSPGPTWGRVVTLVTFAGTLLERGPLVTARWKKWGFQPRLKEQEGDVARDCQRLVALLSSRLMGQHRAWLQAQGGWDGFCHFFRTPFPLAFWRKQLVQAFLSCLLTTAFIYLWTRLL

[30] = biological target: T6, DNA dC->dU-editing enzyme APOBEC-3G; experiment: inhibition of APOBEC3G ssDNA deamination – biochemical, fluorescence, single-stranded DNA substrate, SAR follow-up (AID 602136); assay type: functional; conditions: read-out: IC50_Mean

Cc1cc(C)n(C(C)C(C)C(=O)O)n1 (stereo not given)
EC50 [1]: > 100 µM (inactive) | EC50 [2]: > 100 µM (inactive) | EC50 [3]: > 100 µM (inactive)

Nc1ccc(-c2cccn3c(=O)[nH]nc23)cc1
Ki [4]: 12.6 µM (active) | Ki [5]: 50.1 µM (active) | Ki [6]: > 63.1 µM (inactive) | Ki [7]: > 100 µM (inactive) | Ki [8]: 6.31 µM (active) | Ki [9]: 63.1 µM (active) | Ki [10]: > 79.4 µM (inactive) | Ki [11]: > 79.4 µM (inactive) | Ki [12]: > 100 µM (inactive) | Ki [13]: > 63.1 µM (inactive) | Ki [14]: 39.8 µM (active) | Ki [15]: 12.6 µM (active) | Ki [16]: 3.16 µM (active) | Ki [17]: > 100 µM (inactive) | Ki [18]: 50.1 µM (active) | Ki [19]: 79.4 µM (active) | Ki [20]: 31.6 µM (active)

COc1ccc(Oc2c(C=O)cnn(Cc3cccc4ccccc34)c2=O)cc1
IC50 [21]: 0.91 µM (active) | IC50 [22]: 1.76 µM (active)

N#CC(c1ccccc1)c1ccnn(Cc2cccc3ccccc23)c1=O (stereo not given)
IC50 [23]: > 20 µM (inactive) | IC50 [24]: > 20 µM (inactive)

Cc1ccc(C)n1Cc1ccc(C(=O)O)cc1
IC50 [25]: 1.98 µM (active) | IC50 [26]: 3.45 µM (inconclusive) | IC50 [27]: 52.6 µM (inactive) | IC50 [28]: 4.11 µM (active) | IC50 [29]: 6.93 µM (active) | IC50 [30]: 39.3 µM (inactive)
